Biological target: T1, human RNR (histidine tagged human M1 and human M2 proteins) (Homo sapiens, UniProt P23921)
T1 construct: made in house; host or cells: Escherichia coli
T1 sequence (P23921 1-792): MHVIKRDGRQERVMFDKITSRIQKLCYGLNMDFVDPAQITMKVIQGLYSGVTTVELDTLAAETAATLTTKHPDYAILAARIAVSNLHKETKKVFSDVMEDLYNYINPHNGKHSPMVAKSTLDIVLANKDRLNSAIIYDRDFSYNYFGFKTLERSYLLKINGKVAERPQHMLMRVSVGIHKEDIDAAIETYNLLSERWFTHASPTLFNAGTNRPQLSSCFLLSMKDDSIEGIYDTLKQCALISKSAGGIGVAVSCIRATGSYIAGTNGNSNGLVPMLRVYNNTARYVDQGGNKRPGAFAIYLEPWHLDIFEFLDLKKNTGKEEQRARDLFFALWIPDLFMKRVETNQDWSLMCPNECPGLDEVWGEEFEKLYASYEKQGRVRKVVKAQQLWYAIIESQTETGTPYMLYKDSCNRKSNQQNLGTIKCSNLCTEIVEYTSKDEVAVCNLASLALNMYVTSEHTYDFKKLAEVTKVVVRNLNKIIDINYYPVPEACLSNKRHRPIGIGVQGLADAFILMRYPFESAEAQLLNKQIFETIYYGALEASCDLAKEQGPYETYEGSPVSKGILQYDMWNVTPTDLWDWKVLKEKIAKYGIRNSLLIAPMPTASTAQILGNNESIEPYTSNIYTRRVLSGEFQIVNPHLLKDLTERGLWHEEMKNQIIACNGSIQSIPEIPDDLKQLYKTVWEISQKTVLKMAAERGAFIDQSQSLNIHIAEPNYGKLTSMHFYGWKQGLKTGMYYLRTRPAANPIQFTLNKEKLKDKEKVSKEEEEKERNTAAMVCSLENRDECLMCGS
Assay: Human RNR inhibition effect (dCDP formation from CDP)
Format: biochemical
Conditions: 10 μM CDP, 37° C. for 30 minutes, read-out: RNR inhibitory activity IC50
Outline: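 His-tagged human M1 (isoform 1) and N-terminal 59-aa-truncated M2 (isoform 2), E. coli-expressed, Ni-purified, preincubated 20 min with compound (1% DMSO). Reaction with 10 μM CDP, 2 mM ATP, 0.24 mM NADPH, 6 mM DTT, 4 mM Mg acetate, 100 mM KCl, 50 mM HEPES pH 7.2, 30 min at 37° C. dCDP formed quantified by reverse-phase HPLC after heat stop.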

| Structure (SMILES) | IC50 |
| --- | --- |
| Cc1ccc(F)c([C@@H](C)[C@H](NS(=O)(=O)c2ccc(Br)c(C#N)c2)c2n[nH]c(=O)o2)c1C [Example 343, 4-bromo-3-cyano-N-((1S,2R)-(6-fluoro-2,3-dimethylphenyl)-1-(5-oxo-4,5-dihydro-1,3,4-oxadiazol-2-yl)propyl)benzenesulfonamide] | 0.64 µM |
| COc1ccc(-c2cc(S(=O)(=O)N[C@H](c3n[nH]c(=O)o3)[C@H](C)c3c(F)ccc(C)c3C)ccc2Cl)cc1 [Example 344, 6-chloro-N-((1S,2R)-2-(6-fluoro-2,3-dimethylphenyl)-1-(5-oxo-4,5-dihydro-1,3,4-oxadiazol-2-yl)propyl)-4′-methoxy-[1,1′-biphenyl]-3-sulfonamide] | 0.72 µM |
| COc1ccccc1-c1ccc(C(N)=O)c(S(=O)(=O)N[C@H](c2n[nH]c(=O)o2)[C@H](C)c2c(F)ccc(C)c2C)c1 [Example 345] | 0.25 µM |

Continued, values first:

| IC50 | Structure (SMILES) |
| --- | --- |
| 0.42 µM | COc1cc(C(N)=O)ccc1S(=O)(=O)N[C@H](c1n[nH]c(=O)o1)[C@H](C)c1c(F)ccc(C)c1C [Example 346, 4-(N-((1S,2R)-(6-fluoro-2,3-dimethylphenyl)-1-(5-oxo-4,5-dihydro-1,3,4-oxadiazol-2 yl)propyl)sulfamoyl)-3-methoxybenzamide] |
| 0.25 µM | COc1cc(Cl)ccc1S(=O)(=O)N[C@H](c1noc(=O)[nH]1)[C@H](C)c1c(F)ccc(C)c1C [Example 349, 4-chloro-N-((1S,2R)-2-(6-fluoro-2,3-dimethylphenyl)-1-(5-oxo-4,5-dihydro-1,2,4-oxadiazol-3-yl)propyl)-2-methoxybenzenesulfonamide] |
| 0.46 µM | COc1cc(Cl)ccc1S(=O)(=O)N[C@H](c1n[nH]c(=S)[nH]1)[C@H](C)c1c(F)ccc(C)c1C [Example 350] |

Reference: patent US20200405697A1, “Antitumor Agent” (Taiho Pharmaceutical Co., Ltd, priority 2017, published 2020)
